Test system: regenerated Aloe vera shoots
Test: in vitro rooting of regenerated Aloe vera shoots
Type: cell-based, Aloe vera (Aloe barbadensis)
Settings: MS supplemented with IAA (0.5, 1.0 or 2.0 mg/L); hormone-free media gave 100% rooting in 3 weeks
Procedure: Regenerated shoots were rooted in both media containing indole acetic acid (0.5, 1.0, or 2.0 mg/L LAA) and MS media lacking any hormones. Shoots were more successfully rooted in the MS media lacking hormones. The culture conditions were the same as those used for initiation.

## indole acetic acid [IAA]
  rooting of shoots: no rooting was observed

Source: patent publication US7892831B2, “Method for in vitro mass culture of Aloe vera” (priority 2006, dated 2011)
